These results are taken from patent US20260151467A1, “METHOD FOR TREATING CANCER” (THE CHILDREN'S MEDICAL CENTER CORPORATION, priority 2018, published 2026).

In one series the test system is Rspo3 fusion organoids. The series is described as follows: Chemotherapy response in mouse intestinal organoids, Rspo3 fusion. It counts as cell-based. Particulars: asparaginase 100 U/L, 10 days. As for the experimental part: (§1) For assessment of chemotherapy response in mouse intestinal organoids, Apc-deficient and Rspo3 fusion organoids were cultured in basal organoid medium (medium not containing murine Wnt3A, murine Noggin and human R-spondin1 protein). A full 0.95 cm2 well of organoids was split into new wells, aiming to obtain approximately 25 organoids per well. Organoids were split according to previously published protocols (O'Rourke et al., 2016). Matrigel and basal organoid culture medium were supplemented with vehicle or chemotherapeutic agents, and split every 48 hours. After 10 days in culture, total organoid numbers per wells were counted by light microscopy. Microscopy was performed using an 100× objective on an Axio Imager A1 microscope (Zeiss, Oberkochen, Germany), with images captured using a CV-A10 digital camera (Jai, Yokohama, Japan) and Cytovision software (Leica Biosystems, Wetzlar, Germany).
(§2) Organoids touching the edge of a well were excluded from counting. Images were taken from a representative of three independent experiments and analyzed with ImageJ Software (Schneider et al., 2012).

Series [1] deals with HCT-15 cells. The series is described as follows: Chemotherapy response of colon cancer cell lines (trypan blue counts), HCT-15. Format: cell-based, human. Particulars: 10 days. As for the experimental part: (§3) Cells (100,000 per well) were seeded in […] of complete growth medium in 12-well plates and incubated with chemotherapeutic agents or vehicle. Cells were split every 48 hours and cell viability was assessed by counting viable cells based on trypan blue vital dye staining (Invitrogen), according to the manufacturer's instructions. Chemotherapeutic drugs included: asparaginase (pegaspargase, Shire, Lexington, MA), CHIR99021 (Selleckchem), recombinant human Wnt3A protein (R&D systems, Minneapolis, MN) and recombinant human R-Spondin 3 protein (R&D systems, Minneapolis, MN). BRD0705 and BRD3731 were synthesized as described (Wagner et al., 2018). Caspase 3/7 activity was assessed using the Caspase Glo 3/7 Assay (Promega, Madison, WI) according to the manufacturer's instructions.

In series [2] the test system is CCRF-CEM cells. The series is described as follows: Viable cell counts (trypan blue) of CCRF-CEM cells treated with asparaginase and other agents. Format: cell-based, human. As for the experimental part: Cells (25,000 per well) were seeded in 100 μl of complete growth medium in 96-well plates and incubated with chemotherapeutic agents or vehicle. T-ALL cells were split every 48 hours in a 1:5 ratio. Briefly, 20 μl of cells were mixed with 80 μl fresh culture medium, supplemented with vehicle or chemotherapeutic drugs at the indicated doses. AML cells were split every 72 hours as described above. Cell viability was assessed by counting viable cells based on trypan blue vital dye staining (Invitrogen), according to the manufacturer's instructions. Chemotherapeutic drugs included: PEG-asparaginase (“oncaspar”, Shire, Lexington, MA), dexamethasone (Sigma-Aldrich), vincristine (Selleckchem, Houston, TX), doxorubicin (Sigma-Aldrich), 6-mercaptopurine (Abcam, Cambridge, UK), CHIR99021 (Selleckchem), bortezomib (Selleckchem), rapamycin (Selleckchem), RAD001 (Selleckchem), AZD2014 (Selleckchem), and Wnt3A (R&D systems, Minneapolis, MN). BRD0705 and […] were synthesized as described^15. Caspase 3/7 activity was assessed using the Caspase Glo 3/7 Assay (Promega, Madison, WI) according to the manufacturer's instructions.

The test system of series [3] is asparaginase-resistant T-ALL patient-derived xenograft. The series is described as follows: T-ALL patient-derived xenograft in NRG mice, survival. It counts as in vivo, mouse. On the procedure: Mice were exposed to a sub-lethal dose of radiation (4.5 Gy) and subsequently injected with human leukemia cells. All injections were performed by tail vein injection. Blood collections were performed to monitor leukemia onset in mice injected with leukemic cells, which was assessed by staining for human CD45 expression using anti-human CD45-PE-Cy7 (1:400, BD #560915) antibody staining. As soon as leukemia engraftment was confirmed based on ≥5% human leukemia cells in the peripheral blood, treatment of mice was begun. Asparaginase (1,000 U/kg) or PBS were injected by tail vein injection as a single dose on day 1 of drug treatment, and BRD0705 (15 mg/kg) or vehicle were given every 12 hours for 12 days by oral gavage. Vehicle was formulated as previously described.^15 Mice were anesthetized with isoflurane (Patterson Veterinary, Greeley, CO) prior to gavage. After start of treatment, body weight was monitored every third day. To assess bilirubin levels, mandibular blood vein collection was performed, and bilirubin levels were measured in the Boston Children's Hospital clinical laboratory. The primary endpoint of this experiment was survival. Mice were euthanized as soon as they developed weight loss greater than 15% or signs/symptoms of progressing disease. Post-mortem analysis of leukemic burden was performed by extracting bone marrow cells, which were filtered through a […] mesh filter and red blood cells were lysed using the BD Biosciences Red Blood Cell Lysis reagent (BD #555899). Isolated bone marrow cells were stained for assessment of leukemic burden using following antibodies from BD Biosciences: Anti-human CD4-APC-Cy7 (1:100, BD #561839) and anti-human CD8-PerCP-Cy5.5 (1:100, BD #560662).

A further series deals with Apc-deficient organoids. In words: Chemotherapy response in mouse intestinal organoids, Apc-deficient. It counts as cell-based. To be noted: asparaginase 100 U/L, BRD0705 1 μM or both, 10 days. On the procedure:
as §1, §2

Another series has as its system SW-480 cells. In words: Chemotherapy response of colon cancer cell lines (trypan blue counts), SW-480. Format: cell-based, human. To be noted: 10 days. On the procedure:
as §3

In the next series the test system is Rspo3 fusion tumors. The series is described as follows: Subcutaneous Rspo3 fusion organoid tumors in nude mice. It counts as in vivo, mouse. Particulars: single dose of asparaginase. As for the experimental part:
(§4) For implantation of APC mutant human CRC PDX, patient tumor material was collected in PBS and kept on wet ice for engraftment within 24 h after resection. Upon arrival, necrotic and supporting tissues were carefully removed using a surgical blade. Approximately 1 mm×1 mm tissue fragments were implanted subcutaneously into the flank region of male nude mice, as described (Bullman et al., 2017). For injection of intestinal organoids (Rspo3; p53; Kras, or Apc; p53; Kras), per mouse one full […] well of organoids was injected subcutaneously.
(§5) As soon as tumors reached a volume of approximately 150 mm3, treatment of mice was begun. For the APC mutant human CRC PDX, a single dose of asparaginase (1,000 U/kg) or PBS was injected by tail vein injection on day 1 of treatment, and BRD0705 (15 mg/kg) or vehicle was given every 12 hours for 21 days by oral gavage. Vehicle was formulated as previously described (Wagner et al., 2018).
(§6) After start of treatment, body weight and tumor size were evaluated every other day. Tumor size was assessed by caliper measurements and the approximate volume of the mass was calculated using the formula (l×w×w)×(π/6), where 1 is the major tumor axis and w is the minor tumor axis.

Series [4] relates to HCT-15 cells. In words: Assessment of cell size by flow cytometry (FSC-H), HCT-15. It counts as cell-based, human. Particulars: asparaginase 100 U/L (FIG. 18A). On the procedure:
[…] After 48 hours of treatment, forward scatter height (FSC-H) was assessed by flow cytometry on a Beckton-Dickinson LSR-II instrument.

Series [5] deals with CCRF-CEM cells. The series is described as follows: Assessment of cell size by flow cytometry (FSC-H), CCRF-CEM. To be noted: asparaginase 10 U/L, 48 hours. It counts as cell-based, human. As for the experimental part: Assessment of cell size. Cells (400,000 per well) were plated in 1 ml of complete growth medium, containing a final concentration of 10 U/L asparaginase in a 24-well format. After 48 hours of treatment, forward scattering (FSC-H) was assessed by flow cytometry.
(In general: Flow cytometry measures light scatter and fluorescence of single cells or particles in a stream.)

Series [6] is described as follows: Body weight of nude mice injected with organoids. To be noted: single dose of asparaginase, FIG. 19A. It counts as in vivo. On the procedure:
as §6

In another series the test system is CRC. To be noted: Clarkson 1970; Ohnuma 1970; Wilson 1975; cited from earlier work.
Another series deals with Apc-deficient tumors. The series is described as follows: Subcutaneous Apc-deficient organoid tumors in nude mice. Format: in vivo, mouse. Particulars: single dose of asparaginase. As for the experimental part:
as §4, §5, §6

Series [7] has as its system APC-mutant CRC patient-derived xenograft. In words: APC-mutant human CRC patient-derived xenograft in nude mice. It counts as in vivo, mouse. Particulars: asparaginase 1000 U/kg×1 dose; BRD0705 every 12 hours×21 days. As for the experimental part:
as §4
As soon as tumors reached a volume of approximately 150 mm3, treatment of mice was begun. […] Vehicle was formulated as previously described (Wagner et al., 2018).
as §6
(A xenograft is tissue or cells of one species grown in another, often human tumour cells in immunodeficient mice.)

Regarding asparaginase, the “toxicity to organoids (viable organoid count)” value was “highly toxic” in the series with Rspo3 fusion organoids and “little activity” in the series on Apc-deficient organoids. The “response to asparaginase monotherapy” value in the series on HCT-15 cells [1] and in the series with SW-480 cells was “refractory” throughout. Besides, the toxicity of asparaginase result with CCRF-CEM cells [2] (10 U/L dose) is “lacked detectable toxicity”. Also, in the series on CCRF-CEM cells [2] (FIG. 5: 100 U/L asparaginase, 48 hours), the “asparaginase sensitivity of the cell line (viability)” value is listed as “asparaginase-resistant”. In addition, the “difference in survival between vehicle and monotherapy groups (log-rank)” value in series [3] (FIG. 4D, Kaplan-Meier) is “not significant”. The “efficacy against xenograft (survival)” value in series [3] (asparaginase 1,000 U/kg i.v. single dose, BRD0705 15 mg/kg oral gavage every 12 hours for 12 days) is on record as “highly resistant”. For the same substance, the therapeutic activity entry in the series on Rspo3 fusion tumors is “significant therapeutic activity”. Moreover, the “disease progression (tumor volume)” value in the series on Rspo3 fusion tumors (FIG. 16B) was “markedly delayed disease progression”. Moreover, the tumor regression result in the series on Rspo3 fusion tumors (FIG. 16C) is given as “induced tumor regression in most treated mice”. Moreover, in the series with Rspo3 fusion tumors (FIG. 16D), the progression-free survival entry is “prolonged progression-free survival”. The “cell size (FSC-H)” value was “significantly decreased cell size” in the series on HCT-15 cells [4] and “measurable decrease in cell size” in the series with CCRF-CEM cells [5]. For the same substance, in series [6], the weight loss result is on record as “without inducing appreciable weight loss”. For the same substance, in the series on CRC, the “activity in unselected patients with CRC” value was “little activity”. Further, in the series with Apc-deficient tumors, the effect on tumors entry is “little effect”. Also, the “activity on tumor growth” value in series [7] is given as “no activity”.
